In article PMC6688628, “N-Substituted Pyrrole Derivative 12m Inhibits HIV-1 Entry by Targeting Gp41 of HIV-1 Envelope Glycoprotein” (Frontiers in Pharmacology, 2019):
Where two headings read alike, the source gives them in different places.

Tests used:
[1] = system: HIV-1 NL4-3(36G)N42T,N43K; settings: T20-resistant NL4-3(36G)N42T,N43K; p24 ELISA; mean ± SD
[2] = system: HIV-1 NL4-3(36G)V38E,N42S; settings: T20-resistant NL4-3(36G)V38E,N42S; p24 ELISA; mean ± SD
[3] = system: HIV-1 NL4-3(36G)V38A,N42D; settings: T20-resistant NL4-3(36G)V38A,N42D; p24 ELISA; mean ± SD
HIV-1 NL4-3(36G)V38A = settings: T20-resistant NL4-3(36G)V38A; p24 ELISA; mean ± SD
HIV-1 NL4-3D36G = format: cell-based; settings: T20-sensitive parent strain, p24 ELISA, mean ± SD
[4] = system: HIV-1 NL4-3(36G)V38A,N42T; settings: T20-resistant NL4-3(36G)V38A,N42T; p24 ELISA; mean ± SD
HIV-1 92UG029 = test: Anti-HIV-1 activity, primary strain 92UG029; format: cell-based; settings: luciferase readout, mean ± SD
HIV-1 US4 (GS 007) = test: microbe, parasite or virus in culture; format: cell-based
Description: (§1) The HIV-1 replication-inhibiting activity of compounds was determined as previously described ([Li et al., 2013]). Briefly, 1 × 10^4 TZM-bl or MT-2 cells were infected with primary HIV-1 strains or T20-resistant HIV-1 strains (100 TCID50) in 200 µl of RPMI-1640 medium containing 10% FBS in the presence or absence of compounds at graded concentrations for 12 h. The culture medium was replaced with fresh medium without the compounds. After culture for an additional 48 h, supernatants or cells were collected from each well. For the primary HIV-1 strains, the cells were treated using a luciferase kit. Briefly, the cells were lysed with the lysis reagent and were transferred into a 96-well flat-bottom luminometer plate after three washes with phosphate-buffered saline (PBS) (Costar Corning Inc., Corning, NY), followed by addition of the luciferase substrate included in the luciferase kit (Promega Corp., Madison, WI). The luciferase activity was measured immediately by an Ultra 384 microplate reader (Tecan, Research Triangle Park, NC). T20 was used as a positive control. For the T20-resistant HIV-1 strains, 100 µl of culture supernatant was mixed with 100 µl of 5% Triton X-100. Then, those virus lysates were assayed for p24 antigen by enzyme linked immunosorbent assay (ELISA) as previously described ([Li et al., 2010]). Absorbance at 450 nm was recorded in an ELISA reader (Ultra 384, Tecan). EC50 values were calculated using the computer program CalcuSyn ([Chou and Talalay, 1984]).

HIV-1 BCF02 = test: microbe, parasite or virus in culture; format: cell-based
Description: as §1

HIV-1 93/BR/020 = test: microbe, parasite or virus in culture; format: cell-based
Description: as §1

[5] = system: HIV-1JR-FL Env mutant K574A pseudovirus; format: cell-based; settings: compared with wild-type HIV-1JR-FL pseudovirus
[6] = system: R5 and X4 HIV-1 strains (Env pseudotyped viruses); format: cell-based
HIV-1 = system: HIV-1; design: method as in Jiang et al., 2004; settings: inhibition of HIV-1 entry; ref Jiang et al., 2004; cited from earlier work

Molecule	IC50 [1]	IC90 [1]	IC50 [2]	IC90 [2]	IC50 [3]	IC90 [3]	IC50 (HIV-1 NL4-3(36G)V38A)	IC90 (HIV-1 NL4-3(36G)V38A)	IC50 [4]	IC90 [4]	other results
COc1ccc(S(=O)(=O)[O-])cc1N=Nc1c(S(=O)(=O)[O-])cc2cc(Nc3nc(Nc4ccccc4)nc(Nc4cc(C)c(N=Nc5cc(S(=O)(=O)[O-])cc6cc(S(=O)(=O)[O-])cc(O)c56)cc4OC)n3)ccc2c1O.[Na+].[Na+].[Na+].[Na+] [ADS-J1]	610 ± 250 nM	4240 ± 1210 nM	110 ± 10 nM	330 ± 10 nM	650 ± 180 nM	8200 ± 2650 nM	160 ± 40 nM	400 ± 50 nM	620 ± 160 nM	8390 ± 1550 nM	IC50 (HIV-1 NL4-3D36G): 940 ± 30 nM; IC90 (HIV-1 NL4-3D36G): 2030 ± 200 nM; IC50 (HIV-1 92UG029): 20600 ± 5290 nM; IC90 (HIV-1 92UG029): 32200 ± 6710 nM; IC50 (HIV-1 US4 (GS 007); primary strain US4 (GS 007), luciferase readout, mean ± SD, read-out: IC50): 4620 ± 760 nM; IC90 (HIV-1 US4 (GS 007); primary strain US4 (GS 007), luciferase readout, mean ± SD, read-out: IC90): 9900 ± 1440 nM; IC50 (HIV-1 BCF02; primary strain BCF02, luciferase readout, mean ± SD, read-out: IC50): 1450 ± 260 nM; IC90 (HIV-1 BCF02; primary strain BCF02, luciferase readout, mean ± SD, read-out: IC90): 3060 ± 420 nM; IC50 (HIV-1 93/BR/020; primary strain 93/BR/020, luciferase readout, mean ± SD): 13000 ± 3490 nM; IC90 (HIV-1 93/BR/020; primary strain 93/BR/020, luciferase readout, mean ± SD, read-out: IC90): 27000 ± 4300 nM; inhibitory activity against K574A mutant pseudovirus [5]: exerted inhibitory activity
Enfuvirtide	> 2000 nM	> 2000 nM	> 2000 nM	> 2000 nM	895 ± 310 nM	> 2000 nM	279 ± 82 nM	> 2000 nM	> 2000 nM	> 2000 nM	inhibitory activity against the R5 and X4 HIV-1 strains ([6]; positive controls, single-cycle pseudovirus infection): strong inhibitory activity; IC50 (HIV-1 US4 (GS 007); US4 (GS 007, 12 h)): 59 ± 10 nM; IC90 (HIV-1 US4 (GS 007); US4 (GS 007, 12 h)): 1430 ± 443 nM; IC50 (HIV-1 BCF02; BCF02, 12 h): 50 ± 22 nM; IC90 (HIV-1 BCF02; BCF02, 12 h): 502 ± 338 nM; IC90 (HIV-1 93/BR/020; 93/BR/020, 12 h): 313 ± 22 nM
O=C(O)c1cc(-n2cccc2)ccc1Cl [NB-64]	–	–	–	–	–	–	–	–	–	–	effective concentration for 50% inhibition (EC50) (HIV-1): on the µM level
c1cc(CN2CCCNCCNCCCNCC2)ccc1CN1CCCNCCNCCCNCC1 [AMD3100]	–	–	–	–	–	–	–	–	–	–	inhibitory activity against the R5 and X4 HIV-1 strains [6]: strong inhibitory activity
